# Assays:
# Format in all cases: cell-based
# [1] = biological target: T1, sweet taste receptor T1R2/T1R3/Gα15 (Homo sapiens, UniProt Q7RTX0+Q8TE23); test: Calcium assay (FLIPR) in JUMP-IN T-REX U2-OS cells with doxycycline-inducible T1R2/T1R3/Gα15; conditions: U73122
# T1 construct: expressed in transfected cells; host or cells: JUMP-IN T-REX U2-OS cells
# T1 sequence (Q8TE23 20-839): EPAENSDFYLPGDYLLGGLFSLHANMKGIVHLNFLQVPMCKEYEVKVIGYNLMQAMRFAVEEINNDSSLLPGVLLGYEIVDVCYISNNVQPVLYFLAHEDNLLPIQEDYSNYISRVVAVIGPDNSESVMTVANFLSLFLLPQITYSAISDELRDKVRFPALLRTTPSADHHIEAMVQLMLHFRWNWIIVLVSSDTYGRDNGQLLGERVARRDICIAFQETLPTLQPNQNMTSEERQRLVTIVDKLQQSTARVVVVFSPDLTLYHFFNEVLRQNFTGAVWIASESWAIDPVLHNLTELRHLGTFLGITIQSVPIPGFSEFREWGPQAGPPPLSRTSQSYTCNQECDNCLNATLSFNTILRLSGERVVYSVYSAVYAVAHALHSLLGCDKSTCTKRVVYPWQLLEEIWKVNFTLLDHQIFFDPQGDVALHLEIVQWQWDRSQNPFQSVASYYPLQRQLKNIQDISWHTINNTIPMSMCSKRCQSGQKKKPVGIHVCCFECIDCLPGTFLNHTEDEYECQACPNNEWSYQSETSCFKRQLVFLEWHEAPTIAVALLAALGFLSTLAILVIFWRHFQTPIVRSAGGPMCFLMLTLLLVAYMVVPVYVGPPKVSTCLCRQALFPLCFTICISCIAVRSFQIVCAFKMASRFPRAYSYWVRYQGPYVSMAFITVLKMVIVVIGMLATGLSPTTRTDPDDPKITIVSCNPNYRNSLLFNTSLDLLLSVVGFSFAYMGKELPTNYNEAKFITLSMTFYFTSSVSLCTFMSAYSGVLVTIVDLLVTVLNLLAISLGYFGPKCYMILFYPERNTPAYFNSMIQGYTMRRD
# T1 sequence (Q7RTX0 21-852): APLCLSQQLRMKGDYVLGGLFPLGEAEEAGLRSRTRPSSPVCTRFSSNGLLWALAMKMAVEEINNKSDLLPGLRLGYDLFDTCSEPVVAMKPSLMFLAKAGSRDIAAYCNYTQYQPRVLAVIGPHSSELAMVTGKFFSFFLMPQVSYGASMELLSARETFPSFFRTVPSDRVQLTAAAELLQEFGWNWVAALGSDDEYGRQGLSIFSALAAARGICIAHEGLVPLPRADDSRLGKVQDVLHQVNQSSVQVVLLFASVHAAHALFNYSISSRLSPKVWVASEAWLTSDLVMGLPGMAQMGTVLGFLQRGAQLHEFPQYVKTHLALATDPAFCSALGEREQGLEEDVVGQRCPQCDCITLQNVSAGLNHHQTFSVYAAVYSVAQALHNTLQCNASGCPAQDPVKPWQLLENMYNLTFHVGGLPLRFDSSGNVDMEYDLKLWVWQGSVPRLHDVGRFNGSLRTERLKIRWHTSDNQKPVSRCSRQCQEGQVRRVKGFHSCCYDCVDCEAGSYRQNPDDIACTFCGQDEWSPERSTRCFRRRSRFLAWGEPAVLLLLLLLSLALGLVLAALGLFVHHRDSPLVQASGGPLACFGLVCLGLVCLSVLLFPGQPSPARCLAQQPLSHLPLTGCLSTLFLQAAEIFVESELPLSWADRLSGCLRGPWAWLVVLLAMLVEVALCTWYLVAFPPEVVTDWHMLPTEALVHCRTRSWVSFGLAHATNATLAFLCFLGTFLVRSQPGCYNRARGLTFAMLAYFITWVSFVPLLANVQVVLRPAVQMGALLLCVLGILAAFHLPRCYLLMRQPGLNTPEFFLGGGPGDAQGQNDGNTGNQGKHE
# Description: JUMP-IN T-REX U2-OS cells were transfected with the PJTI-R4EXP-CMV-TO-T1R3/T1R2/Gα15-pA and JTI-R4 Integrase vectors (Life Technology).
# The peak increase in fluorescence over baseline was determined and is expressed as relative fluorescence units (RFU).
# sweet receptor T1R2/T1R3 [2] = biological target: T2, sweet receptor T1R2/T1R3 (Homo sapiens, UniProt Q7RTX0+Q8TE23); test: pERK1/2 assay in U2-OS cells transfected with Gα15; conditions: for pERK1/2 activation: U2-OS cells overexpressing Gα15 (6 μl/40,000 cells), 100 mM
# T2 construct: Formation of green fluorescent vesicles in TRANSFLUOR U2-OS cells transfected with BacMam encoding Gα15; endogenous in cells; host or cells: TRANSFLUOR U2-OS cells stably expressing β-arrestin-GFP, transfected with BacMam Gα15
# T2 sequence (Q8TE23 20-839): T1 sequence (Q8TE23 20-839)
# T2 sequence (Q7RTX0 21-852): T1 sequence (Q7RTX0 21-852)
# Description: (§1) U2-OS cells were transiently transfected with 0.5-12 μl of BacMam encoding G protein, gustducin (Gα15, Gα16gust44) per 40,000 cells during 24 h or 48 h. Transfected cells were seeded at density of 5,000 cells/well on PDL-coated 384-well plates.
# For pERK1/2 studies, growth media was replaced with media without serum for 2 h. U2-OS cells were treated with 100 mM Sweet compounds with or without of U73122 (10 μM) and with or without […] (20 mM). Control groups of cells also received DMSO (0.1%) in medium. The fixed cells were stained with rabbit anti-phospho-p44/p42 MAPK (pERK1/2) antibodies from Cell Signaling Technologies, then with secondary Alexa 488-conjugated antibodies (Life Technology) and HOECHST 33342. Images were acquired on an ImageXpressMicro (MDC) and analyzed with MWCS Module.
# The phosphorylation of ERK1/2 is a common downstream event following GPCR activation via the PLCβ2-IP3 pathway. Growth media was replaced with Dulbecco's phosphate buffered saline (DPBS) without serum for 2 h. […] For each data point, average of Mean Cell Integrated intensity and standard deviation are calculated from quadruplicate data points. […]
# sweet receptor T1R2/T1R3 [3] = biological target: T2, sweet receptor T1R2/T1R3; test: Calcium assay (FLIPR) in U2-OS cells transfected with Gα15; conditions: U2-OS transfected with Gα15 BacMam; 100 mM
# Description: as §1
# Calcium traces in Fluo-4AM loaded cells were recorded over time in FLIPR^Tetra (MDC) with λEX=470-495 nm and λEM=515-575 nm. The peak increase in fluorescence over baseline was determined and is expressed as relative fluorescence units (RFU).
# sweet receptor T1R2/T1R3 [4] = biological target: T2, sweet receptor T1R2/T1R3; test: pERK1/2 assay in parental U2-OS cells (high content imaging); conditions: 100 mM, 5, 15 and 30 minutes
# Description: U2-OS cells were grown in McCoy media supplemented with 10% fetal bovine serum. Cells were seeded at density of 5,000 cells/well on PDL-coated 384-well plates.
# For pERK1/2 studies, growth media was replaced with media without serum for 2 h. […] (20 mM). Control groups of cells also received DMSO (0.1%) in medium. […] Images were acquired on an ImageXpressMicro (MDC) and analyzed with MWCS Module.
# The phosphorylation of ERK1/2 is a common downstream event following GPCR activation via the PLCβ2-IP3 pathway. Growth media was replaced with Dulbecco's phosphate buffered saline (DPBS) without serum for 2 h. […] For each data point, average of Mean Cell Integrated intensity and standard deviation are calculated from quadruplicate data points.
Structure (SMILES),Ca2+ response (sweet receptor T1R2/T1R3 [3]),pERK1/2 activation (sweet receptor T1R2/T1R3 [2]),also measured
COc1ccc2c(c1)CC[C@@H]1[C@@H]2CC[C@]2(C)[C@@H](NCCCCCCN3C(=O)C=CC3=O)CC[C@@H]12 [U73122],–,–,"Effect on Ca2+ release upon treatment with D-glucose and D-fructose [1]: abolished; Effect on Ca2+ response after stimulation with sucrose and sucralose [1]: had no effect; Blockade of pERK1/2 activation (sweet receptor T1R2/T1R3 [2]; U73122 10 μM, U2-OS cells transfected with Gα15): blocked"
O=C[C@H](O)[C@@H](O)[C@H](O)[C@H](O)CO [D-glucose],significantly increased Ca^(2+) response,induced pERK1/2 activation in a time-dependent manner,pERK1/2 activation (sweet receptor T1R2/T1R3 [4]): induced pERK1/2 activation in a time-dependent manner; pERK1/2 activation (sweet receptor T1R2/T1R3 [4]; listed as glucose): activates pERK1/2; pERK1/2 activation (sweet receptor T1R2/T1R3 [2]; listed as glucose): increased pERK1/2 activity
OC[C@H]1O[C@H](O[C@H]2[C@H](O)[C@@H](O)C(O)O[C@@H]2CO)[C@H](O)[C@@H](O)[C@@H]1O (mixture of isomers) [maltose],–,increased pERK1/2 activity,–
OC[C@H]1O[C@H](O[C@]2(CCl)O[C@H](CCl)[C@@H](O)[C@@H]2O)[C@H](O)[C@@H](O)[C@H]1Cl [sucralose],induced Ca^(2+) response,–,–
OC[C@H]1O[C@@](CO)(O[C@H]2O[C@H](CO)[C@@H](O)[C@H](O)[C@H]2O)[C@@H](O)[C@@H]1O [sucrose],significantly increased Ca^(2+) response,–,–
O=C(CO)[C@@H](O)[C@H](O)[C@H](O)CO [D-fructose],significantly increased Ca^(2+) response,–,–

# — patent US10107794B2, “Methods of using U2-OS cells to identify potential sweet taste modulators” (PepsiCo, Inc., priority 2013, dated 2018)
